CC50 data for four molecules are collected here from US20110053892A1, “Imidazo[4,5-d]Pyridazine Compounds For Treating Viral Infections” (priority 2009, published 2011).

Where only a bound is given, the exact number is not on record here.

In this series the test system is HCV Genotype 1B replicon cells. Format: cell-based. Conditions: Table 3; cytotoxicity, cell titer glo. From the text: The genotype 1a replicon contains several adaptive mutations (NS4B Q31H, NS5A K68R, NS5A S232I), the luciferase gene and encodes for neomycin resistance. The genotype 1b replicon, also referred to as the ET replicon, is stably transfected with RNA transcripts harboring a I389luc-ubi-neo/NS3-3′/ET replicon with firefly luciferase-ubiquitin-neomycin phosphotransferase fusion protein and EMCV-IRES driven NS3-5B polyprotein containing the cell culture adaptive mutations (E1202G; T1280I; K1846T) See, Kreiger, et al., Journal of Virology 75:4614-4624 (2001). Both cell lines were grown in DMEM, supplemented with 10% fetal calf serum, 2 mM Glutamine, Penicillin (100 IU/mL)/Streptomycin (100 μg/mL), 1× nonessential amino acids, and 250 μg/mL G418 (“Geneticin”). They were all available through Life Technologies (Bethesda, Md.). The cells were plated at 0.5×10^4 cells/well in 384 well plates containing compounds. The final concentration of compounds ranged between 0.1 nM to 50 μM and the final DMSO concentration of 0.5%.
Luciferase activity was measured 48 hours later by adding a Steady glo (Promega, Madison, Wis.). Percent inhibition of replication data was plotted relative to no compound control. Under the same condition, cytotoxicity of the compounds was determined using cell titer glo (Promega, Madison, Wis.). EC50 values were determined from a 10 point dose response curve using 2-4 fold serial dilutions for each compound, which spans a concentration range of at least a 1000 fold. Replicon EC50 values, the concentration of compound required to inhibit 50% of the assay response, were calculated by curve fitting data to the Hill equation, using a non-linear least-squares curve-fitting program. The software tested the data for quality and rejected compounds with high and low activity before fitting the equation below.
In general, CC50 refers to the concentration that lowers cell viability or growth by half. For `CCCOC(=O)C(c1cc(-c2ccc(C3CC3)cc2C(F)(F)F)no1)n1cc2nc(-c3cccc(F)c3F)nc-2cn1` (stereo not shown) [Compound 184, Propyl {3-[4-cyclopropyl-2-(trifluoromethyl)phenyl]-5-isoxazolyl}[2-(2,3-difluorophenyl)-5H-imidazo[4,5-d]pyridazin-5-yl]acetate], the half-maximal cytotoxic concentration (CC50) amounted to 25 µM. That is a double-digit micromolar value. Consider `O=C(OCCCO)C(c1cc(-c2ccc(C3CC3)cc2C(F)(F)F)no1)n1cc2nc(-c3cccc(F)c3F)nc-2cn1` (stereo not shown) [Compound 182, 3-Hydroxypropyl {3-[4-cyclopropyl-2-(trifluoromethyl)phenyl]-5-isoxazolyl}[2-(2,3-difluorophenyl)-5H-imidazo[4,5-d]pyridazin-5-yl]acetate], for which the CC50 is greater than 50 µM. `COC(=O)C(c1cc(-c2ccc(C3CC3)cc2C(F)(F)F)no1)n1cc2nc(-c3cccc(F)c3F)nc-2cn1` (stereo not shown) [Compound 178, Methyl {3-[4-cyclopropyl-2-(trifluoromethyl)phenyl]-5-isoxazolyl}[2-(2,3-difluorophenyl)-5H-imidazo[4,5-d]pyridazin-5-yl]acetate] registered a CC50 of 25 µM. The value for `O=C(OCCOCCO)C(c1cc(-c2ccc(C3CC3)cc2C(F)(F)F)no1)n1cc2nc(-c3cccc(F)c3F)nc-2cn1` (stereo not shown) [Compound 179, 2-[(2-hydroxyethyl)oxy]ethyl {3-[4-cyclopropyl-2-(trifluoromethyl)phenyl]-5-isoxazolyl}[2-(2,3-difluorophenyl)-5H-imidazo[4,5-d]pyridazin-5-yl]acetate] was 50 µM.
